Converted amounts (≈) assume the structure as drawn.

One data set concerns the target T1, PI3K delta (Homo sapiens, UniProt O00329).
T1 construct: for the full-length p110-d subunit are generated and fused by overlapping PCR; p85(iSH2) fusion partner (see partner chain) (N); His tag (C); made in house; host or cells: baculovirus; Tn5 (Trichoplusia ni) or TiniPro insect cells
Description: PI3K delta kinase assay (Kinase-Glo luminescence). The class given is biochemical. The gist of the method: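 Lipid kinase activity of a His-tagged p110δ full-length/p85 iSH2 fusion (10 nM) toward bovine liver phosphatidylinositol (10 μg/mL) at 1 μM ATP, pH 7.5, 60 min, room temperature. ATP consumption is quantified by luciferase-based luminescence. Four-parameter logistic fitting gives IC50.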

A further data set is described as follows: Solubility at pH 6.8. The data set is classed as physicochemical. Particulars: pH 6.8, aqueous buffer, thermodynamic from solid; read-out: solubility. In a few lines:
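Following the procedure of Zhou et al. (2007), compound solubility was determined at pH 6.8.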

A further data set has as its target T2, PI3K alpha (Homo sapiens, UniProt P42336).
T2 construct: p85(iSH2) fusion partner (see partner chain) (N); His tag (C); made in house; host or cells: baculovirus; Tn5 (Trichoplusia ni) or TiniPro insect cells
Kind of data set: PI3K alpha kinase assay (Kinase-Glo luminescence). The data set is classed as biochemical. The gist of the method:
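Enzyme 10 nM PI3Kα EMV B1075; ATP 1 μM; PI 10 μg/mL; Tris-HCl pH 7.5 10 mM, MgCl2 3 mM, NaCl 50 mM, CHAPS 0.05%, DTT 1 mM; 60 min RT; Kinase-Glo luminescence; 4-parameter IC50 fit, 8 concentrations, single points.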

The next data set deals with T3, PI3K beta (Homo sapiens, UniProt P42338).
T3 construct: for the full-length p110-b subunit are generated and fused by overlapping PCR; p85(iSH2) fusion partner (see partner chain) (N); His tag (C); made in house; host or cells: baculovirus; Tn5 (Trichoplusia ni) or TiniPro insect cells
Description: PI3K beta kinase assay (Kinase-Glo luminescence). The data set is classed as biochemical. The gist of the method: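 Kinase-Glo luminescence after a 60 min room-temperature reaction gives remaining ATP. The reaction holds 25 nM p85(iSH2)-p110β full-length His-tagged construct, 1 μM ATP, 10 μg/mL PI, and eight compound concentrations at 0.45% DMSO final. IC50 values come from a four-parameter logistic fit.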
(In general: Kinase-Glo reads ATP consumption through a luciferase reaction.)

For a further data set, the target named is T4, mTOR (Homo sapiens, UniProt P42345).
T4 construct: purchased Invitrogen Corporation (Carlsbad/CA, USA) PV4753
Kind of data set: Biochemical assay for m-TOR by TR-FRET. The conditions noted are these: 8 μM ATP, 400 nM GFP-4EBP1, 0.5 nM mTOR. The gist of the method:
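TR-FRET read-out: Tb-labelled anti-p4EBP1 pThr46 antibody (0.5 nM), added in EDTA to stop the reaction, detects phosphorylated GFP-4EBP1 after 15 min. Kinase step used 0.5 nM mTOR, 400 nM substrate, 8 μM ATP, MnCl2-containing HEPES buffer pH 7.5, room temperature.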

T2 sequence (P42336 with tags, fused parts or gaps limits assumed): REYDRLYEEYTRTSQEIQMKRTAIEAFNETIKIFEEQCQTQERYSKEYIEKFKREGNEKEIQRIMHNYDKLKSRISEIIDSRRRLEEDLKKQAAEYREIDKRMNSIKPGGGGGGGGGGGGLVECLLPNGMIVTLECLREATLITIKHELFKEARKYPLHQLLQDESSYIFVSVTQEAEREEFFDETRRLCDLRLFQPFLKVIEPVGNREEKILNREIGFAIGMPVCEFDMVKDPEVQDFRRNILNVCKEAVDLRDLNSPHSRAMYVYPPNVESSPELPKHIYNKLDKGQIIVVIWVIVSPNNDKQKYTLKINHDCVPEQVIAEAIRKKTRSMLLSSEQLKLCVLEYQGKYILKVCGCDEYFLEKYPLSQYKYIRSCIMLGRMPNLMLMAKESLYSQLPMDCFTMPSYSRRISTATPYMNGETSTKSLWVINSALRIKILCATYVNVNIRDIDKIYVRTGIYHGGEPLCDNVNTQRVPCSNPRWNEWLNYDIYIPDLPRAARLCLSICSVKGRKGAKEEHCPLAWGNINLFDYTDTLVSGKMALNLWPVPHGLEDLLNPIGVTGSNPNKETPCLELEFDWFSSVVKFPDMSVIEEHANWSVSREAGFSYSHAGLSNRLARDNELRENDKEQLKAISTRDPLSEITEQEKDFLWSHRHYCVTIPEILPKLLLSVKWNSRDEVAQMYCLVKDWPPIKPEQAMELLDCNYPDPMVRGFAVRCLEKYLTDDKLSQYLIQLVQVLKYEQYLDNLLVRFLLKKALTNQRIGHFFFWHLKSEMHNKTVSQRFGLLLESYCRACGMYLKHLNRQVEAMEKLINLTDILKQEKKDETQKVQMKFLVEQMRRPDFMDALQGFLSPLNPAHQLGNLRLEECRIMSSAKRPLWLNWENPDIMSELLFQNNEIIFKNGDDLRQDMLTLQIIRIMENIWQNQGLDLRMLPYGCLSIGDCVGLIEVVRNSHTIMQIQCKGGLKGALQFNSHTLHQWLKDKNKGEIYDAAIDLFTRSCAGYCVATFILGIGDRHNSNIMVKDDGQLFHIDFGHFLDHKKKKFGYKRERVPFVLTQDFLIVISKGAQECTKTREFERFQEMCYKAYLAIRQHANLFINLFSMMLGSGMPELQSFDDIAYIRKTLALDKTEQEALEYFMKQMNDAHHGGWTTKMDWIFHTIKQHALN
T3 sequence (P42338 with tags, fused parts or gaps limits assumed): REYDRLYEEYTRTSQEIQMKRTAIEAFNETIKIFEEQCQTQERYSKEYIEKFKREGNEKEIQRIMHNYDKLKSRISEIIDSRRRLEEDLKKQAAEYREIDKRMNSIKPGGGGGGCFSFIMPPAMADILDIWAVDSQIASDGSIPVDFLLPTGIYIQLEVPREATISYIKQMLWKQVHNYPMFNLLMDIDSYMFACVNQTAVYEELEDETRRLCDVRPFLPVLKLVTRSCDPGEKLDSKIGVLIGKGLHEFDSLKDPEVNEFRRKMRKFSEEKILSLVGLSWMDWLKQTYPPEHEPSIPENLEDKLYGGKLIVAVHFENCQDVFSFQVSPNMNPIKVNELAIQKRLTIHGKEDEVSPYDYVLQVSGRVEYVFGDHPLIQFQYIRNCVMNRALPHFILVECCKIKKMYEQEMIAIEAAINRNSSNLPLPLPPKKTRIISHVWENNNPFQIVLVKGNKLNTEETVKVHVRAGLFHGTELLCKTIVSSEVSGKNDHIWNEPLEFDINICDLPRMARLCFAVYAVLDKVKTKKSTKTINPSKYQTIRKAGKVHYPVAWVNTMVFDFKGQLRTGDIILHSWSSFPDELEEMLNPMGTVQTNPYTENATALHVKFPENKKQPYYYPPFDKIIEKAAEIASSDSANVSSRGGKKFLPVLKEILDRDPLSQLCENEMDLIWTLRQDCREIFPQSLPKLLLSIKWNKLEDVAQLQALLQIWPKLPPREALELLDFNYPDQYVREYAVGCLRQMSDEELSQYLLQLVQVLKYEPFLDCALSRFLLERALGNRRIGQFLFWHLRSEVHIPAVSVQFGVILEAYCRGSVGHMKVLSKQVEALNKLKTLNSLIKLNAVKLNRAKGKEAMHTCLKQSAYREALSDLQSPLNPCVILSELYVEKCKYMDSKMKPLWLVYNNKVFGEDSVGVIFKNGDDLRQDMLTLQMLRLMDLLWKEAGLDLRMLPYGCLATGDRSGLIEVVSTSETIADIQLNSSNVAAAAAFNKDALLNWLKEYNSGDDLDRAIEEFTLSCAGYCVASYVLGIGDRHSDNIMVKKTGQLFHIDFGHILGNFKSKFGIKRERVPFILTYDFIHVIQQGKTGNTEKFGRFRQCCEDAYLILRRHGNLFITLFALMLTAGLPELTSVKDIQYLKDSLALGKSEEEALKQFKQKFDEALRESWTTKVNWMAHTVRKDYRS
T1 sequence (O00329 with tags, fused parts or gaps limits assumed): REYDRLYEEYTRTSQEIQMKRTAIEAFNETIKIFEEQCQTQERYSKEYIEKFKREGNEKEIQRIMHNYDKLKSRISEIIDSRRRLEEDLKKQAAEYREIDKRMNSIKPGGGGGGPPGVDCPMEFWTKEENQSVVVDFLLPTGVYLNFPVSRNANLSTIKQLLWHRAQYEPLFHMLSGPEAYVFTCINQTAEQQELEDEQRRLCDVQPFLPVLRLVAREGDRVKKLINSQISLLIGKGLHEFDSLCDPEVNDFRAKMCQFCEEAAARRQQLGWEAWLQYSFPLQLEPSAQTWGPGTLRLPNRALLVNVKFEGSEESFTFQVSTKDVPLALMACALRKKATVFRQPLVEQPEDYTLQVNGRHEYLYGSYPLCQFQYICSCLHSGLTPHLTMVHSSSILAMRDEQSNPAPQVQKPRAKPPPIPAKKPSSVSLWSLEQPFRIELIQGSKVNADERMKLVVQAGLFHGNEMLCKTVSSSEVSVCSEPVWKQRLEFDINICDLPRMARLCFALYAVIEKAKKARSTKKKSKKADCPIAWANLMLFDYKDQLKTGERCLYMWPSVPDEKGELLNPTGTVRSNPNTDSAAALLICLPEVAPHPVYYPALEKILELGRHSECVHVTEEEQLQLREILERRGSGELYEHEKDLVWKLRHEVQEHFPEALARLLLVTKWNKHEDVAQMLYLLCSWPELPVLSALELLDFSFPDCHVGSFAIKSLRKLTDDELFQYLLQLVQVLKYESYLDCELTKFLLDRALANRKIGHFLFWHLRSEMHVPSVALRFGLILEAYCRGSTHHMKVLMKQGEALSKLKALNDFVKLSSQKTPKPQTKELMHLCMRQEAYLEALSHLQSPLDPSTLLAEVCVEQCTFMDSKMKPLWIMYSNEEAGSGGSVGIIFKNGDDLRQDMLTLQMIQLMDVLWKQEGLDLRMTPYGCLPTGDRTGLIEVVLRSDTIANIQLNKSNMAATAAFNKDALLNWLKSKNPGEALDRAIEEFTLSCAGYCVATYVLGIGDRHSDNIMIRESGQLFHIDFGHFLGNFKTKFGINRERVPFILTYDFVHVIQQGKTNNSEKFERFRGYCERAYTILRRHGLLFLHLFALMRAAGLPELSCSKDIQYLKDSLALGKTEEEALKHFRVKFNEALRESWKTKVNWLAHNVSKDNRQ
T4 sequence (P42345 1360-2549 limits assumed): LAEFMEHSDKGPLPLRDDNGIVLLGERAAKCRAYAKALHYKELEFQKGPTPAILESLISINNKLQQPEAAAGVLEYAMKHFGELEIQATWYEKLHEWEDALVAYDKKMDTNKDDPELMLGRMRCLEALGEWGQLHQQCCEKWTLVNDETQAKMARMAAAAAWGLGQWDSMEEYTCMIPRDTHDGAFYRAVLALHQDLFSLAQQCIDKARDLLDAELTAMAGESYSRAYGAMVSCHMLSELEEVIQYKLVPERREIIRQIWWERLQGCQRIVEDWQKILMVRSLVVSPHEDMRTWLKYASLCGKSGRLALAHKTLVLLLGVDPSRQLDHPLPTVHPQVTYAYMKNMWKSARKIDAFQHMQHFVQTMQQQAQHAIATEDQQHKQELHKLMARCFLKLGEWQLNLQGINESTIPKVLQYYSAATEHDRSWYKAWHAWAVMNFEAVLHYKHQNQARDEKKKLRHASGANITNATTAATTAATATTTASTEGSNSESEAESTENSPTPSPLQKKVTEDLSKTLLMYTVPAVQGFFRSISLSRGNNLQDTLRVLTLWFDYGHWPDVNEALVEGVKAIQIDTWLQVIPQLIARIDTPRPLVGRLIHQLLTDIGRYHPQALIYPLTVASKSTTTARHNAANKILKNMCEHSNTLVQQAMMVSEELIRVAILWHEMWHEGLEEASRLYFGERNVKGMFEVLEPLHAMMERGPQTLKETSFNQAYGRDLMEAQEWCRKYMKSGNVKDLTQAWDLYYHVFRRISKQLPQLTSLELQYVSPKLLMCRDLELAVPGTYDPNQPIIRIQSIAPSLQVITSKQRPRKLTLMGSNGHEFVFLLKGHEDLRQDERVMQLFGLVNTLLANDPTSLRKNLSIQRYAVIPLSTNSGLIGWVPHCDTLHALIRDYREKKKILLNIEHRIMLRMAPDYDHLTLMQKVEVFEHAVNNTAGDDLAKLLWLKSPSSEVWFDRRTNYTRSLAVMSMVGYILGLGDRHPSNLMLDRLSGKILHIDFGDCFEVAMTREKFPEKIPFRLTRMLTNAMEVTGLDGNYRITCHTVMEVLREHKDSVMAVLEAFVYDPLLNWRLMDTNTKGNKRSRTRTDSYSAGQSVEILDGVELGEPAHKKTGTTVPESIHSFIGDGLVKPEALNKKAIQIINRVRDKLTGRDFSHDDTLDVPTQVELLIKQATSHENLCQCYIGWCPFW

What is called IC50 is the concentration that inhibits the measured activity by half. Broadly, the solubility is how much of the substance goes into solution per volume. In the case of `Cc1nn(C)c(C)c1-n1c(=O)n(C)c2cnc3ccc(-c4ccc(CO)nc4)cc3c21` [Example 16.4, 8-(6-Hydroxymethyl-pyridin-3-yl)-3-methyl-1-(1,3,5-trimethyl-1H-pyrazol-4-yl)-1,3-dihydro-imidazo[4,5-c]quinolin-2-one], the IC50 at PI3K delta was 161 nM; at PI3K alpha, 184 nM; on PI3K beta, 515 nM; on mTOR, 666 nM. Moreover, the solubility in the data set “Solubility at pH 6.8” was greater than 414 µg/mL.

In the case of `CCOc1ncc(-c2ccc3ncc4c(c3c2)n(-c2cn(C)nc2C)c(=O)n4C)cc1N(C)C(C)=O` [Example 63, N-{5-[1-(1,3-Dimethyl-1H-pyrazol-4-yl)-3-methyl-2-oxo-2,3-dihydro-1H-imidazo[4,5-c]quinolin-8-yl]-2-ethoxy-pyridin-3-yl}-N-methyl-acetamide], the IC50 at PI3K delta is 20 nM; on PI3K alpha it was 92 nM; at PI3K beta, 110 nM; on mTOR it was 306 nM. Further, the solubility in the data set “Solubility at pH 6.8” was greater than 486 µg/mL.

As for `Cc1nn(C)cc1-n1c(=O)n(C)c2cnc3ccc(-c4cncc(N5CCC5)c4)cc3c21` [Example 179, 8-(5-Azetidin-1-yl-pyridin-3-yl)-1-(1,3-dimethyl-1H-pyrazol-4-yl)-3-methyl-1,3-dihydro-imidazo[4,5-c]quinolin-2-one], the IC50 on PI3K delta is 87 nM; at PI3K alpha it was 39 nM; on PI3K beta, 130 nM; at mTOR, 13 nM. For the same compound, the solubility in “Solubility at pH 6.8” is 28 µg/mL (≈ 65.8 µM).

Turning to `COCc1ccc(-c2ccc3ncc4c(c3c2)n(-c2cn(C)nc2Cl)c(=O)n4C)cn1` [Example 203, 1-(3-Chloro-1-methyl-1H-pyrazol-4-yl)-8-(6-methoxymethyl-pyridin-3-yl)-3-methyl-1,3-dihydro-imidazo[4,5-c]quinolin-2-one], the IC50 at PI3K delta was 8 nM; at PI3K alpha, 5 nM; at PI3K beta, 104 nM; at mTOR, 15 nM. In addition, the solubility in “Solubility at pH 6.8” came out at 12 µg/mL (≈ 27.6 µM).

As for `Cc1nn(C)cc1-n1c(=O)n(C)c2cnc3ccc(-c4cncc(N(C)C)c4)cc3c21` [Example 178, 8-(5-Dimethylamino-pyridin-3-yl)-1-(1,3-dimethyl-1H-pyrazol-4-yl)-3-methyl-1,3-dihydro-imidazo[4,5-c]quinolin-2-one], the IC50 at PI3K delta was 85 nM; on PI3K alpha it was 82 nM; at PI3K beta it was 274 nM; at mTOR, 15 nM. The solubility in “Solubility at pH 6.8” came to 25 µg/mL (≈ 60.5 µM).

Regarding `CCN1C(=O)OCc2ncc(-c3ccc4ncc5c(c4c3)n(-c3cn(C)nc3C)c(=O)n5C)cc21` [Example 237, 1-(1,3-Dimethyl-1H-pyrazol-4-yl)-8-(1-ethyl-2-oxo-1,4-dihydro-2H-pyrido[3,2-d][1,3]oxazin-7-yl)-3-methyl-1,3-dihydro-imidazo[4,5-c]quinolin-2-one], the 50% inhibitory concentration (IC50) was 9 nM on PI3K delta, 8 nM at PI3K alpha, 7 nM on PI3K beta and 70 nM on mTOR. The solubility in “Solubility at pH 6.8” came to 14 µg/mL (≈ 29.8 µM).

With `CCn1c(=O)n(-c2cn(C)nc2C)c2c3cc(-c4cncc(N)c4)ccc3ncc21` [Example 245, 8-(5-Amino-pyridin-3-yl)-1-(1,3-dimethyl-1H-pyrazol-4-yl)-3-ethyl-1,3-dihydro-imidazo[4,5-c]quinolin-2-one], the half-maximal inhibitory concentration (IC50) was found to be 30 nM at PI3K delta, 22 nM at PI3K alpha, 162 nM at PI3K beta and 76 nM at mTOR. In the data set “Solubility at pH 6.8”, the solubility was found to be 129 µg/mL (≈ 323 µM).

As to `Cc1nn(C)c(C)c1-n1c(=O)n(C)c2cnc3ccc(-c4cnc(N)c(CO)c4)cc3c21` [Example 169.2, 8-(6-Amino-5-hydroxymethyl-pyridin-3-yl)-3-methyl-1-(1,3,5-trimethyl-1H-pyrazol-4-yl)-1,3-dihydro-imidazo[4,5-c]quinolin-2-one], the IC50 stood at 27 nM at PI3K delta, 34 nM at PI3K alpha, 165 nM on PI3K beta and 149 nM at mTOR. For the same compound, the solubility in “Solubility at pH 6.8” is greater than 429 µg/mL.

For `CNc1cncc(-c2ccc3ncc4c(c3c2)n(-c2cn(C(C)C)nc2C)c(=O)n4C)c1` [Example 180.2, 1-(1-Isopropyl-3-methyl-1H-pyrazol-4-yl)-3-methyl-8-(5-methylamino-pyridin-3-yl)-1,3-dihydro-imidazo[4,5-c]quinolin-2-one], the IC50 is 6 nM on PI3K delta, 22 nM on PI3K alpha, 42 nM on PI3K beta and less than 3 nM at mTOR. The solubility in the data set “Solubility at pH 6.8” amounted to 10 µg/mL (≈ 23.4 µM).

For the compound `CCNc1ncc(-c2ccc3ncc4c(c3c2)n(-c2cn(C)nc2C)c(=O)n4C)cc1COC` [Example 206.1, 1-(1,3-Dimethyl-1H-pyrazol-4-yl)-8-(6-ethylamino-5-methoxymethyl-pyridin-3-yl)-3-methyl-1,3-dihydro-imidazo[4,5-c]quinolin-2-one], the IC50 at PI3K delta is 7 nM; on PI3K alpha, 26 nM; at PI3K beta it was 38 nM; on mTOR, 34 nM. In “Solubility at pH 6.8”, the solubility is 8 µg/mL (≈ 17.5 µM).

For the compound `Cc1nn(C)cc1-n1c(=O)n(C)c2cnc3ccc(-c4cnc(CO)c(OC(CF)CF)c4)cc3c21` [Example 192, 1-(1,3-Dimethyl-1H-pyrazol-4-yl)-8-[5-(2-fluoro-1-fluoromethyl-ethoxy)-6-hydroxymethyl-pyridin-3-yl]-3-methyl-1,3-dihydro-imidazo[4,5-c]quinolin-2-one], the IC50 is 5 nM at PI3K delta, less than 3 nM at PI3K alpha, 6 nM at PI3K beta and 6 nM at mTOR. In addition, the solubility in the data set “Solubility at pH 6.8” stood at 27 µg/mL (≈ 54.6 µM).

For the compound `CNc1ncc(-c2ccc3ncc4c(c3c2)n(-c2cn(C(C)C)nc2C)c(=O)n4C)cc1F` [Example 141.3, 8-(5-Fluoro-6-methylamino-pyridin-3-yl)-1-(1-isopropyl-3-methyl-1H-pyrazol-4-yl)-3-methyl-1,3-dihydro-imidazo[4,5-c]quinolin-2-one], the IC50 on PI3K delta came out at 9 nM; on PI3K alpha, 21 nM; on PI3K beta it was 407 nM; on mTOR it was 27 nM. In addition, in “Solubility at pH 6.8”, the solubility worked out at 5 µg/mL (≈ 11.2 µM).

In the case of `Cc1nn(C)cc1-n1c(=O)n(C)c2cnc3ccc(-c4ccc(N5CCC5)nc4)cc3c21` [Example 5.1, 8-(6-Azetidin-1-yl-pyridin-3-yl)-1-(1,3-dimethyl-1H-pyrazol-4-yl)-3-methyl-1,3-dihydro-imidazo[4,5-c]quinolin-2-one], the IC50 is 144 nM at PI3K delta, 30 nM on PI3K alpha, 787 nM on PI3K beta and 18 nM on mTOR. Further, the solubility in the data set “Solubility at pH 6.8” turned out to be 3 µg/mL (≈ 7.05 µM).

As for `CNc1cc(-c2ccc3ncc4c(c3c2)n(-c2cn(C)nc2C)c(=O)n4C)cnc1C` [Example 163, 1-(1,3-Dimethyl-1H-pyrazol-4-yl)-3-methyl-8-(6-methyl-5-methylamino-pyridin-3-yl)-1,3-dihydro-imidazo[4,5-c]quinolin-2-one], the IC50 at PI3K delta was 5 nM; at PI3K alpha, 6 nM; at PI3K beta, 10 nM; at mTOR, less than 3 nM. Moreover, the solubility in the data set “Solubility at pH 6.8” amounted to 24 µg/mL (≈ 58 µM).

In the case of `CCn1cc(-n2c(=O)n(C)c3cnc4ccc(-c5ccc(OC)nc5)cc4c32)c(C)n1` [Example 2.7, 1-(1-Ethyl-3-methyl-1H-pyrazol-4-yl)-8-(6-methoxy-pyridin-3-yl)-3-methyl-1,3-dihydro-imidazo[4,5-c]quinolin-2-one], the IC50 at PI3K delta was found to be 19 nM; at PI3K alpha, 24 nM; on PI3K beta, 91 nM; on mTOR it was 13 nM. The solubility in the data set “Solubility at pH 6.8” was found to be 3 µg/mL (≈ 7.24 µM).

With `CNC(=O)c1cc(-c2ccc3ncc4c(c3c2)n(-c2cn(C)nc2C)c(=O)n4C)cnc1OC` [Example 125.1, 5-[1-(1,3-Dimethyl-1H-pyrazol-4-yl)-3-methyl-2-oxo-2,3-dihydro-1H-imidazo[4,5-c]quinolin-8-yl]-2-methoxy-N-methyl-nicotinamide], the IC50 at PI3K delta amounted to 26 nM; at PI3K alpha, 28 nM; on PI3K beta it was 61 nM; at mTOR it was 51 nM. Moreover, the solubility in the data set “Solubility at pH 6.8” came to 6 µg/mL (≈ 13.1 µM).

These data come from US20140005163A1 (NOVARTIS AG, priority 2010, published 2014).
